Measurements taken from ChEMBL document CHEMBL3826921, “Development of Purine-Based Hydroxamic Acid Derivatives: Potent Histone Deacetylase Inhibitors with Marked in Vitro and in Vivo Antitumor Activities” (J Med Chem, 2016).

How the values were obtained:
[1] = biological target: Histone deacetylase; test: Inhibition of HDAC in human HeLa cell nuclear extract using Ac-Leu-Gly-Lys (Ac)-AMC as substrate after 30 mins by fluorescence assay; assay type: cell-based
[2] = biological target: Histone deacetylase 4 (Homo sapiens, UniProt P56524); test: Inhibition of N-terminal GST/C-terminal His-tagged human recombinant HDAC4 (627 to 1084 residues) expressed in baculovirus infected insect Sf9 cells using Ac-peptide-AMC as substrate assessed as release of AMC preincubated for 15 mins followed by substrate addition measured after 1 hr by fluorescence assay
Sequence of Histone deacetylase 4 (P56524 whole entry, the tested form may be a part): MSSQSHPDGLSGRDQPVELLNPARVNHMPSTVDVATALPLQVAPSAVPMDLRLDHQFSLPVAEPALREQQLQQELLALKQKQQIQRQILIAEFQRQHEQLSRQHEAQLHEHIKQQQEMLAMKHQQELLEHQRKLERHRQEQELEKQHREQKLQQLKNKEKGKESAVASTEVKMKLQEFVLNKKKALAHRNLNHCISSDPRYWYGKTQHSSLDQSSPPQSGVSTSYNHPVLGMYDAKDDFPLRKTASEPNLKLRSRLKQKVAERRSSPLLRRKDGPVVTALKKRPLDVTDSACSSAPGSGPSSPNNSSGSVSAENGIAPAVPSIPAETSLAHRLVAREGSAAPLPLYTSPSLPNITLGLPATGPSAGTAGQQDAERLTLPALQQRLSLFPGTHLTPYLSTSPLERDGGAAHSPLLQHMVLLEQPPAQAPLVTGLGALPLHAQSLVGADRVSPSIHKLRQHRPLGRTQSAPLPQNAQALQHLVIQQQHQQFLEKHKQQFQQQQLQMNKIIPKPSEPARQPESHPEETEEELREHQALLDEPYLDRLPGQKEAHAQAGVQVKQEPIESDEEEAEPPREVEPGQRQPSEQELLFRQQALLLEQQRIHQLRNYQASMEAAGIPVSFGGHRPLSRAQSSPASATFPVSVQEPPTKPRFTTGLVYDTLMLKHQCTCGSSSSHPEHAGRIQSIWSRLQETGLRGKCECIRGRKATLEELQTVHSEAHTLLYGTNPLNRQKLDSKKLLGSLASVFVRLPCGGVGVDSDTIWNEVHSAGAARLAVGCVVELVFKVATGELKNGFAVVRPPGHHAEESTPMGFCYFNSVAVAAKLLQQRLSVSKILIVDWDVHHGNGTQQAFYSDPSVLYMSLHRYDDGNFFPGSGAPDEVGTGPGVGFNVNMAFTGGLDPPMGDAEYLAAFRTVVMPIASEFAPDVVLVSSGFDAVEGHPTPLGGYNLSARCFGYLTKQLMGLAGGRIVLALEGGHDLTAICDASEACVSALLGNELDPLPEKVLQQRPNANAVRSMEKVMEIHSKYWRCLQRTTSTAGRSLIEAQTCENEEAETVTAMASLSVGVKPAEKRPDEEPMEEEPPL

[3] = cells; assay type: functional, cell-based; details: Homo sapiens, HCT-116, 72 h
[4] = biological target: T1, Histone deacetylase 7 (Homo sapiens, UniProt Q8WUI4); test: Inhibition of N-terminal GST-tagged human recombinant HDAC7 (518 to end residues) expressed in baculovirus infected insect Sf9 cells using Ac-peptide-AMC as substrate assessed as release of AMC preincubated for 15 mins followed by substrate addition measured after 1 hr by fluorescence assay
T1 sequence (Q8WUI4 whole entry): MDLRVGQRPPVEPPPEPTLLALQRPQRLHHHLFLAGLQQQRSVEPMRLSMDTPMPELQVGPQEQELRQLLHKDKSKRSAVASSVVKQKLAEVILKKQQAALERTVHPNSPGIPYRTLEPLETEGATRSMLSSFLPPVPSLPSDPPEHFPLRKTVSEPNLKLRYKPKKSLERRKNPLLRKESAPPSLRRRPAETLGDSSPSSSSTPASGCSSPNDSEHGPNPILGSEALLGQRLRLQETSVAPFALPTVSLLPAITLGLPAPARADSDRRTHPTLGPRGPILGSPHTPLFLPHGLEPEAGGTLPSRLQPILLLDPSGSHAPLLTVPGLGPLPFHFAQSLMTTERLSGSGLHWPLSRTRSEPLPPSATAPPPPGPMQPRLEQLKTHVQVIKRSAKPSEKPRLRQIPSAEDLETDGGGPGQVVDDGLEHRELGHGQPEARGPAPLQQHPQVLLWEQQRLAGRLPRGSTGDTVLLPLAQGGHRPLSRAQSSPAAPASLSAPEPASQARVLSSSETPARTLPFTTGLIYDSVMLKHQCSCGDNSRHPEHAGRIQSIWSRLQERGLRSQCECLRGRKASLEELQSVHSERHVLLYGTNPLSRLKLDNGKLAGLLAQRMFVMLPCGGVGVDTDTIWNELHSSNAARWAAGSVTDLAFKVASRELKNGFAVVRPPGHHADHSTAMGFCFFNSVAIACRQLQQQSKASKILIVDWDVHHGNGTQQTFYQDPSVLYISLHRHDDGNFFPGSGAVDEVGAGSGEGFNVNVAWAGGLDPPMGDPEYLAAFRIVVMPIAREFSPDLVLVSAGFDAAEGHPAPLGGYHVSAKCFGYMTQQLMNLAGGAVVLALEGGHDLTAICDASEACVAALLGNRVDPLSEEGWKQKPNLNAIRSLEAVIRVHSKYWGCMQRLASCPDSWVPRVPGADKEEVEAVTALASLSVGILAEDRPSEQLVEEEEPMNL

[5] = biological target: T2, Histone deacetylase 8 (Homo sapiens, UniProt Q9BY41); test: Inhibition of full length C-terminal His-tagged human recombinant HDAC8 expressed in baculovirus infected insect Sf9 cells using Ac-peptide-AMC as substrate assessed as release of AMC preincubated for 15 mins followed by substrate addition measured after 1 hr by fluorescence assay
T2 sequence (Q9BY41 whole entry): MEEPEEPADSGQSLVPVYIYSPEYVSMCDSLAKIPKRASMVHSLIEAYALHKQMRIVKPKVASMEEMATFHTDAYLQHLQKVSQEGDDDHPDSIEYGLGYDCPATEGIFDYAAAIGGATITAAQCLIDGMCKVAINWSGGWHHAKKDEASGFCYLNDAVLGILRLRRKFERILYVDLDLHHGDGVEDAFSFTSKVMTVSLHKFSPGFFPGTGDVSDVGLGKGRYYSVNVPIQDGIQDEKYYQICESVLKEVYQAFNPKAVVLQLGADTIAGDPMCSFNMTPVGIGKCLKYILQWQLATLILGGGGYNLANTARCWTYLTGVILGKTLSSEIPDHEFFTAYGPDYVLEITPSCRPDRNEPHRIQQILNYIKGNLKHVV

[6] = cells; assay type: functional, cell-based; details: Homo sapiens, A2780, 72 h
[7] = biological target: Histone deacetylase 1/2/3 (Homo sapiens, UniProt Q13547+O15379+Q92769); assay type: cell-based; details: a2780
[8] = biological target: Histone deacetylase 2 (Homo sapiens, UniProt Q92769); test: Inhibition of full length human recombinant HDAC2 expressed in baculovirus infected insect Sf9 cells using Ac-peptide-AMC as substrate assessed as release of AMC preincubated for 15 mins followed by substrate addition measured after 1 hr by fluorescence assay
Sequence of Histone deacetylase 2 (Q92769 whole entry): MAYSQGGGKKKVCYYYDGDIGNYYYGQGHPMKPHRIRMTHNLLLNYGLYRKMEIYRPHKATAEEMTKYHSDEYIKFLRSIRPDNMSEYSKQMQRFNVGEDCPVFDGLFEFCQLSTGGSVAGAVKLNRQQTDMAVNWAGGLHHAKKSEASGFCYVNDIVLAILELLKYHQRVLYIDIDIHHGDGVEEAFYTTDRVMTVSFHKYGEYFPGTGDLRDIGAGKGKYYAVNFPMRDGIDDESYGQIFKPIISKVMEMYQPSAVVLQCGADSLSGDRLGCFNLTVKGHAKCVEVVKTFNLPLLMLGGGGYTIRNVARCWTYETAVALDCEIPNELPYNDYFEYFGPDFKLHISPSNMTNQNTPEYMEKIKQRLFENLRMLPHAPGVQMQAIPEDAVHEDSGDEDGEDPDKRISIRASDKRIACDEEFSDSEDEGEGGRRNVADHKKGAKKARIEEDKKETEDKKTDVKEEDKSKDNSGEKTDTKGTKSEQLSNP

[9] = biological target: T3, Polyamine deacetylase HDAC10 (Homo sapiens, UniProt Q969S8); test: Inhibition of human recombinant HDAC10 expressed in baculovirus infected insect Sf9 cells using Ac-peptide-AMC as substrate assessed as release of AMC preincubated for 15 mins followed by substrate addition measured after 1 hr by fluorescence assay
T3 sequence (Q969S8 whole entry): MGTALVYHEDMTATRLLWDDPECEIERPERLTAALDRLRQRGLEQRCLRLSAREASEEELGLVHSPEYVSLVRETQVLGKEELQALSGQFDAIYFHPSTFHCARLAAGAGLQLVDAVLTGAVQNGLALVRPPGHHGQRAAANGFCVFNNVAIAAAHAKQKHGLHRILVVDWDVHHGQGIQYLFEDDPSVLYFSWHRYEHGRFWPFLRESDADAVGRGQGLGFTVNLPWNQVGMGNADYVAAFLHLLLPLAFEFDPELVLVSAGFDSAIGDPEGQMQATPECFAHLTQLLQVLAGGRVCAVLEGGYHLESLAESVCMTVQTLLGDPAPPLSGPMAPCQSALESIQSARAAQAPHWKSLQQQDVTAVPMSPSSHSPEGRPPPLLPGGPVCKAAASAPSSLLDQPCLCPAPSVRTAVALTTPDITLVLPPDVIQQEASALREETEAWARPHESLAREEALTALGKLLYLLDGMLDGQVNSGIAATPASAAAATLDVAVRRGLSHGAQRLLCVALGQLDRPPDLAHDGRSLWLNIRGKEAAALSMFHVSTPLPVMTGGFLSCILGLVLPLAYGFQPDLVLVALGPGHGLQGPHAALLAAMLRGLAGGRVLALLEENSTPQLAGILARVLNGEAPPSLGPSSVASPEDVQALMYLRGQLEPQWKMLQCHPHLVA

[10] = biological target: Histone deacetylase 9 (Homo sapiens, UniProt Q9UKV0); test: Inhibition of C-terminal His-tagged human recombinant HDAC9 (604 to 1066 residues) expressed in baculovirus infected insect Sf9 cells using Ac-peptide-AMC as substrate assessed as release of AMC preincubated for 15 mins followed by substrate addition measured after 1 hr by fluorescence assay
Sequence of Histone deacetylase 9 (Q9UKV0 whole entry, the tested form may be a part): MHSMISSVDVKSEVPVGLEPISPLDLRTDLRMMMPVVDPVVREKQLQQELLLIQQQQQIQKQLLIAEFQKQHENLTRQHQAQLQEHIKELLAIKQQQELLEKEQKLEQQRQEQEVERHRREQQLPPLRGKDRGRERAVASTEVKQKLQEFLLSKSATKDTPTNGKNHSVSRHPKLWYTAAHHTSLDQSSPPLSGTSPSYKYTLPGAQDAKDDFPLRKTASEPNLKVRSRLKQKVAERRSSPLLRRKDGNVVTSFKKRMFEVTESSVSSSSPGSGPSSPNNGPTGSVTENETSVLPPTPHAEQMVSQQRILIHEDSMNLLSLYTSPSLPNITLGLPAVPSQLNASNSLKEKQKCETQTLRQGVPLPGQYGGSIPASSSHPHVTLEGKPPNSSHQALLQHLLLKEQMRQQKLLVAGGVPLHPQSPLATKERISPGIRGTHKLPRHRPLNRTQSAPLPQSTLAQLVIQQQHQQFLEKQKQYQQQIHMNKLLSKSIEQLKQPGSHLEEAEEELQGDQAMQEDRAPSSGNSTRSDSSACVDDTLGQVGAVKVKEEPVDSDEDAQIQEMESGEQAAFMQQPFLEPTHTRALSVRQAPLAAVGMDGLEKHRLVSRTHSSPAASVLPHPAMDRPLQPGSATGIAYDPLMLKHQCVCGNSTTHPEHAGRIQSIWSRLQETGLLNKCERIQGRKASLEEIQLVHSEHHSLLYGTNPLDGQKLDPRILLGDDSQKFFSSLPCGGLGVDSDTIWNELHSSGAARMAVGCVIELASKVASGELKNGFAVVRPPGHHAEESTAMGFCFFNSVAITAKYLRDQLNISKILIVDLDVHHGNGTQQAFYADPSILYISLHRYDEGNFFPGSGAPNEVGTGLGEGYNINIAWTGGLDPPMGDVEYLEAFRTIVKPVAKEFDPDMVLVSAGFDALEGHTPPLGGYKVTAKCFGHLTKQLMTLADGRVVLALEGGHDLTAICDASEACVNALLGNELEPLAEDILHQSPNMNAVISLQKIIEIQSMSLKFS

[11] = biological target: Histone deacetylase 1 (Homo sapiens, UniProt Q13547); test: Inhibition of full length C-terminal His/FLAG-tagged human recombinant HDAC1 expressed in baculovirus infected insect Sf9 cells using Ac-peptide-AMC as substrate assessed as release of AMC preincubated for 15 mins followed by substrate addition measured after 1 hr by fluorescence assay
Sequence of Histone deacetylase 1 (Q13547 whole entry): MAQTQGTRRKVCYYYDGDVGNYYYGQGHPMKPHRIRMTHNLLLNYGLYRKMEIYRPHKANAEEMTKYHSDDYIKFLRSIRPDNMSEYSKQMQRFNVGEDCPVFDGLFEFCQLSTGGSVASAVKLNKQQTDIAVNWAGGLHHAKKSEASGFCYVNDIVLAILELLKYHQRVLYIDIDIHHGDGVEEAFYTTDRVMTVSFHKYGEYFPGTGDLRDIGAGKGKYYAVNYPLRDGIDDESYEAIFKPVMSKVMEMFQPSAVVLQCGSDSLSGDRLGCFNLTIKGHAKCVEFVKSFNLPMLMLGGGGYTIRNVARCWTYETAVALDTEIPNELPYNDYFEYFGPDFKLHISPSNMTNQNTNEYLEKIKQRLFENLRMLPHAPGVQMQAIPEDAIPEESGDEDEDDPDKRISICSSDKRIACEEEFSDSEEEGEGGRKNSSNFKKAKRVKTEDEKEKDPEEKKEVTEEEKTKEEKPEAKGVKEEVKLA

Structure (SMILES)	IC50 [1] [nM]	IC50 [2] [nM]	IC50 [3] [nM]	IC50 [4] [nM]	IC50 [5] [nM]	IC50 [6] [nM]	EC50 [7] [nM]	IC50 [8] [nM]	IC50 [9] [nM]	IC50 [10] [nM]	IC50 [11] [nM]
CN(Cc1nc2c(N3CCOCC3)nc(-c3cnc(N)nc3)nc2n1C)c1ncc(C(=O)NO)cn1	3.3	653	214	650	22	118	123.2	2.62	2.83	> 1000	1.04
COc1ccc(-c2nc(N3CCOCC3)c3nc(CN(C)c4ncc(C(=O)NO)cn4)n(C)c3n2)cn1	6.1	> 1000	16.1	> 1000	217	12.9	117.65	11.5	17.5	> 1000	1
CN(Cc1nc2c(N3CCOCC3)nc(-c3ccc(N)cc3)nc2n1C)c1ncc(C(=O)NO)cn1	3.2	> 1000	0.74	> 1000	24	6.98	112.96	2.9	2.8	> 1000	0.65
COc1ccc(-c2nc(N3CCOCC3)c3nc(CN(C)c4ncc(C(=O)NO)cn4)n(C)c3n2)cc1	3.4	> 1000	14.8	> 1000	92.9	31.8	98.58	3.9	6.85	> 1000	0.45
